What was measured:
[1] = tested on: HCC827; experiment: Antiproliferative activity against human HCC827 cells harboring EGFR mutant after 72 hrs by MTS assay; type: functional, cell-based; details: HCC827, 72 h
[2] = Toxicity in castrated nude mouse xenografted with human PC9 cells assessed as body weight loss at 10 mg/kg, po daily for 14 consecutive days relative to control; type: organism-based; details: in vivo
[3] = tested on: HCC827; experiment: Antitumor activity against human HCC827 cells harboring EGFR exon-19 del mutant xenografted in castrated nude mouse assessed as tumor growth inhibition at 10 mg/kg, po daily for 14 consecutive days measured on day 15 relative to control; type: functional
[4] = Toxicity in castrated nude mouse xenografted with human HCC827 cells assessed as body weight loss at 10 mg/kg, po daily for 14 consecutive days relative to control; type: organism-based; details: in vivo
[5] = tested on: NCI-H1975; experiment: Antitumor activity against human NCI-H1975 cells harboring EGFR T790M/L858R double mutant xenografted in castrated nude mouse assessed as tumor growth inhibition at 20 mg/kg, po daily for 14 consecutive days measured on day 15 relative to control; type: functional
[6] = tested on: NCI-H1975; experiment: Antiproliferative activity against human NCI-H1975 cells harboring EGFR T790M/L858R double mutant after 72 hrs by MTS assay; type: functional, cell-based
[7] = tested on: Calu-3; experiment: Antiproliferative activity against human Calu3 cells harboring WT EGFR after 72 hrs by MTS assay; type: cell-based; details: Calu-3, 72 h
[8] = tested on: PC-9; experiment: Antiproliferative activity against human PC9 cells harboring EGFR mutant after 72 hrs by MTS assay; type: functional, cell-based; details: PC-9, 72 h
[9] = tested on: PC-9; experiment: Antitumor activity against human PC9 cells harboring EGFR exon-19 del mutant xenografted in castrated nude mouse assessed as tumor growth inhibition at 10 mg/kg, po daily for 14 consecutive days measured on day 15 relative to control; type: functional
[10] = tested on: Calu-6; experiment: Antiproliferative activity against human Calu6 cells harboring WT EGFR after 72 hrs by MTS assay; type: cell-based; details: Calu-6, 72 h
[11] = Half life in po dosed mouse; type: ADME, organism-based; details: in vivo
[12] = Toxicity in castrated nude mouse xenografted with human NCI-H1975 cells assessed as body weight loss at 20 mg/kg, po daily for 14 consecutive days relative to control; type: organism-based; details: in vivo
[13] = Selectivity index, ratio of GI50 for human A431 cells harboring WT EGFR to GI50 for human NCI-H1975 cells harboring EGFR T790M/L858R double mutant
[14] = (§1) Antiproliferative activity against human A431 cells harboring WT EGFR after 72 hrs by MTS assay; type: cell-based, A-431; details: human, A431 cells harboring WT EGFR
[15] = target: Epidermal growth factor receptor (Homo sapiens, UniProt P00533, L858R); experiment: Inhibition of recombinant human GST-tagged EGFR L858R mutant expressed in baculovirus expression system by fluorescence assay
[16] = species: Homo sapiens; experiment: Selectivity index, ratio of IC50 for recombinant human N-terminal GST-tagged EGFR (696-end residues) expressed in baculovirus expression system to IC50 for recombinant human N-terminal GST-tagged EGFR T790M/L858R double mutant (696-end residues)
[17] = target: Epidermal growth factor receptor (Homo sapiens, UniProt P00533); experiment: Inhibition of recombinant human N-terminal GST-tagged EGFR (696-end residues) expressed in baculovirus expression system using Srctide as substrate by fluorescence assay
[18] = target: Epidermal growth factor receptor (Homo sapiens, UniProt P00533, L858R/T790M); experiment: Inhibition of recombinant human N-terminal GST-tagged EGFR T790M/L858R double mutant (696-end residues) by fluorescence assay
[19] = tested on: A-431; experiment: as §1; type: cell-based; details: Homo sapiens, A-431, 72 h
[20] = Drug level in human liver microsomes treated with N-(2-((2-(Dimethylamino)ethyl)(methyl)amino)-4-methoxy-5-((4-(1-methyl-1H-pyrrolo[3,2-b]pyridin-3-yl)pyrimidin-2-yl)amino)phenyl)acrylamide by LC-MS/MS analysis; type: ADME, Microsome

Epidermal growth factor receptor (Homo sapiens, UniProt P00533, L858R), sequence (P00533 25-1210 L858R limits assumed): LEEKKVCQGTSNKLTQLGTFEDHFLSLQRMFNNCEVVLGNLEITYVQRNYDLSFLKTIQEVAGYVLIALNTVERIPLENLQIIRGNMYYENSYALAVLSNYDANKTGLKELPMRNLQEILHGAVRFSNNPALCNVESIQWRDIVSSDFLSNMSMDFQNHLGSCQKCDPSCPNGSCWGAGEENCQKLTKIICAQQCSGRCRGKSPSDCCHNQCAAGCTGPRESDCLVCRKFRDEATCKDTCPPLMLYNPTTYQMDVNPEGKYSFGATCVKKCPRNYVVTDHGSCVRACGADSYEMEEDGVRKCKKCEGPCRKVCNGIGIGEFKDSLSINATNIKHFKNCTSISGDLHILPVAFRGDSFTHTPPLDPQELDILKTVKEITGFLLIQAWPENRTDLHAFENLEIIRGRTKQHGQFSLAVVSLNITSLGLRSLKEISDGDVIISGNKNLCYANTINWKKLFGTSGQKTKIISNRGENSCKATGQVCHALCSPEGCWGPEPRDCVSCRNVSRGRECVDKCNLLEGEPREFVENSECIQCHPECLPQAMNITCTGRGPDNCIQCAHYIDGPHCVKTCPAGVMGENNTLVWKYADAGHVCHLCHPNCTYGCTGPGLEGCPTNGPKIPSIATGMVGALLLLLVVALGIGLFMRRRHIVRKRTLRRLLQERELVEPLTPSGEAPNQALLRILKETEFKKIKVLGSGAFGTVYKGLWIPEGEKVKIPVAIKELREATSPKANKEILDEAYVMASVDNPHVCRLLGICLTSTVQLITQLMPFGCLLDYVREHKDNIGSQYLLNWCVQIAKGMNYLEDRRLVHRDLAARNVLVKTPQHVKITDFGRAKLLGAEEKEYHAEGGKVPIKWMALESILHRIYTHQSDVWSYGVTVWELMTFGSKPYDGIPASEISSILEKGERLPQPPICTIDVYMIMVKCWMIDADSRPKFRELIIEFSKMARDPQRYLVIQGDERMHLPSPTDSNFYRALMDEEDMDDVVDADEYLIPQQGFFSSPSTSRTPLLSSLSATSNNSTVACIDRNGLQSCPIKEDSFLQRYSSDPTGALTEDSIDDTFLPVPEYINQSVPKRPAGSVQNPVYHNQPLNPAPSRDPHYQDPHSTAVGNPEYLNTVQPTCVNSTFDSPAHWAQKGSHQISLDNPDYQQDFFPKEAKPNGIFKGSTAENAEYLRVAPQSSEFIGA
Epidermal growth factor receptor (Homo sapiens, UniProt P00533, L858R/T790M), sequence (P00533 25-1210 T790M/L858R limits assumed): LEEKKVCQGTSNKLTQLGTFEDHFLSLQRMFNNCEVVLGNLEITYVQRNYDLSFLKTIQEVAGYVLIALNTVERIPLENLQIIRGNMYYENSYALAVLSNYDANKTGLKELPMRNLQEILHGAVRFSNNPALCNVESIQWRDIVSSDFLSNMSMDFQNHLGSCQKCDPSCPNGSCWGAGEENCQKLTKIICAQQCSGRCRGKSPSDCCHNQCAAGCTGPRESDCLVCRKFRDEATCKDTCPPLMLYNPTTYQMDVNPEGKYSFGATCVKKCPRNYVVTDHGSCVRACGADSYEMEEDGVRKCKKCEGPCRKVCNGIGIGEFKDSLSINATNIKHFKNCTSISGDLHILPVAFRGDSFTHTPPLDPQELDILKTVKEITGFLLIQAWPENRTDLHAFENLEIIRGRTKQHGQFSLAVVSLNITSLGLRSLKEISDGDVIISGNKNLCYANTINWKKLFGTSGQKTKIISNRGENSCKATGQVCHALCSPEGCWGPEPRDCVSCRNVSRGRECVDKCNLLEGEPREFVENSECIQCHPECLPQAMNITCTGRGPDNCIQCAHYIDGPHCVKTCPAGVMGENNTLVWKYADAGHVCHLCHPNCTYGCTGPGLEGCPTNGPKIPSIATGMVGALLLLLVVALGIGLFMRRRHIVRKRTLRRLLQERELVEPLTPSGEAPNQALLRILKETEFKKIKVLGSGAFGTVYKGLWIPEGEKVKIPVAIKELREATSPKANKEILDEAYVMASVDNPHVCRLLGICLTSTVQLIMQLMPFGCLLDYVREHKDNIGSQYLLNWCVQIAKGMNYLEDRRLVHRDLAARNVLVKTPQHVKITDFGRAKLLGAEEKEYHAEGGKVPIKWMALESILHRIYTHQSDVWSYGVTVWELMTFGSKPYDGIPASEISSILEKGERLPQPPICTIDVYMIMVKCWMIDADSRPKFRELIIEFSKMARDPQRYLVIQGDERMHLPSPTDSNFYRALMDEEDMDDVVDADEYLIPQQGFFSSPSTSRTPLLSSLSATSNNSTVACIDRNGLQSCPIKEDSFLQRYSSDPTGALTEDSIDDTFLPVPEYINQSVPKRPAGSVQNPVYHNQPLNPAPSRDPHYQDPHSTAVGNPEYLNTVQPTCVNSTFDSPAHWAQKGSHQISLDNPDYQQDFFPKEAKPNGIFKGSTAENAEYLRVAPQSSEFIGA
Epidermal growth factor receptor (Homo sapiens, UniProt P00533), sequence (P00533 whole entry): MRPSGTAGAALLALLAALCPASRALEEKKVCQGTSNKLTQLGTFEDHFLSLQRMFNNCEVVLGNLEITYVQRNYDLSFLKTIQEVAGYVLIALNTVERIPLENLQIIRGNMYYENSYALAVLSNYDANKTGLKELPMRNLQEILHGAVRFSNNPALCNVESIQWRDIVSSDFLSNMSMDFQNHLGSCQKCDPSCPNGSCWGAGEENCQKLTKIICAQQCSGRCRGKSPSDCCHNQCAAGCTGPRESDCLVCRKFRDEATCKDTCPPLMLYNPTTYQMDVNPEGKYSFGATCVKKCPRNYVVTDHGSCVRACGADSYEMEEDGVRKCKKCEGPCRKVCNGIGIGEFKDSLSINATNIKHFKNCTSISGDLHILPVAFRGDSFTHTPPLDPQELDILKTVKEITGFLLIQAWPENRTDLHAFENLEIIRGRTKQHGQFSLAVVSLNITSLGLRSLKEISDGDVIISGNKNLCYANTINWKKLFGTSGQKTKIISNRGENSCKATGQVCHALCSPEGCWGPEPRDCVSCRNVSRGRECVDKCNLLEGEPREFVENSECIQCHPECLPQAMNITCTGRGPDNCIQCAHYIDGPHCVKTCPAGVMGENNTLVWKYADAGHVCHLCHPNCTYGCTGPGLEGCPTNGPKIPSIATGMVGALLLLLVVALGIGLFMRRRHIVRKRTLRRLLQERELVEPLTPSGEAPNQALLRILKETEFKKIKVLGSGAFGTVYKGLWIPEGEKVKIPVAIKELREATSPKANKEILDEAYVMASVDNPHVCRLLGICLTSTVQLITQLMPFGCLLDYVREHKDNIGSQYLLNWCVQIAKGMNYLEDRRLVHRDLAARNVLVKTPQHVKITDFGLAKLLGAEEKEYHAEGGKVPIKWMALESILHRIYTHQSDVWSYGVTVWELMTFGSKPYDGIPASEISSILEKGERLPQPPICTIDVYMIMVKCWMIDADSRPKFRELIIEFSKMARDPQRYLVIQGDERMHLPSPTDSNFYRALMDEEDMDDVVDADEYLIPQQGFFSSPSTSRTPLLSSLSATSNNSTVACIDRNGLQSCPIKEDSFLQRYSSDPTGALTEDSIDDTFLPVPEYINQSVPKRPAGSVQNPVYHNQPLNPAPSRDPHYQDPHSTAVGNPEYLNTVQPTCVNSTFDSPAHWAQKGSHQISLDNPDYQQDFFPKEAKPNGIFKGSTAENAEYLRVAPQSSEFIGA

SMILES	GI50 ([6]; Homo sapiens, NCI-H1975, 72 h) [nM]	IC50 [1] [nM]	IC50 ([6]; Homo sapiens, NCI-H1975, 72 h) [nM]	IC50 [7] [nM]	IC50 [8] [nM]	IC50 [10] [nM]	RatioGI50 [13]	GI50 at 72 h [14] [nM]	other results
C=CC(=O)Nc1cc(Nc2nccc(-c3cn(C)c4ccccc34)n2)c(OC)cc1N(C)CCN(C)C [OSIMERTINIB]	–	[…]	[…]	[…]	160	5860	–	–	Activity [2]: 8%; TGI [3]: 121%; Activity [4]: 8%; TGI [5]: […]; GI50 [6]: […]; TGI [9]: […]; half-life [11]: […]; Activity [12]: <= 15%
C=CC(=O)Nc1cc(Nc2nccc(-c3noc4ccccc34)n2)c(OC)cc1N1CCC[C@H]1CN(C)C	844	–	–	–	–	–	>75.1	> 10000	–
C=CC(=O)Nc1cc(Nc2nccc(-c3cn(C)c4cccnc34)n2)c(OC)cc1N(C)CCNC	–	42	270	> 10000	330	> 10000	–	–	IC50 [15]: 12000 nM; Ratio IC50 [16]: 42; IC50 [17]: 277000 nM; IC50 [18]: 6600 nM; IC50 [19]: 3470 nM; Drug metabolism [20]: Metabolite_Detected

More lines, main results first:

GI50 ([6]; Homo sapiens, NCI-H1975, 72 h) [nM]	SMILES	IC50 [1] [nM]	IC50 ([6]; Homo sapiens, NCI-H1975, 72 h) [nM]	IC50 [7] [nM]	IC50 [8] [nM]	IC50 [10] [nM]	RatioGI50 [13]	GI50 at 72 h [14] [nM]	other results
49	C=CC(=O)Nc1cc(Nc2nccc(-c3noc4ccccc34)n2)c(OC(F)F)cc1N1CCN(C)CC1	–	–	–	–	–	35.1	1720	–
296	C=CC(=O)Nc1cc(Nc2nccc(-c3nn(C)c4ccsc34)n2)c(OC(F)F)cc1N1CCN(C)CC1	–	–	–	–	–	3.8	1130	–

Reference: ChEMBL document CHEMBL4382217 (Bioorg Med Chem, 2018)
